Assay results from publication PMC4577092, “Identification of Small-Molecule Inhibitors of the HuR/RNA Interaction Using a Fluorescence Polarization Screening Assay Followed by NMR Validation” (PLoS ONE, 2015).

biological target: T1, HuR (Homo sapiens, UniProt Q15717); test: Fluorescence polarization (FP) competition / dose-response assay of HuR/RNA interaction; assay type: binding; conditions: 10nM RNA and 50nM HuR, compounds serially diluted from 250uM
T1 construct: Full length (residue 1–326), RRM1-2 (residue 1–190); inferred from pET14b vector and metal chelation chromatography) (N); made in house; host or cells: E. coli BL21 Rosetta
Procedure: Fluorescence polarization measurements were performed in the 384-well plate format on a Biotek Synergy2 plate reader using 480/20nm excitation and 520/20nm emission filters. The NCI diversity set V library containing 1597 compounds was screened in this study. All samples were dissolved in phosphate buffer (50mM Napi, and 100mM NaCl, 5mM TCEP at pH 7.0). The assay mixture contained 50nM HuR and 10nM RNA to yield FP values approximately 80% of the maximum value observed for fully bound RNA. NCI diversity set V library in 96-well format (10mM stock in DMSO) was transferred to 384-well plate, and then diluted into 50uM in phosphate buffer. 5ul of 50uM compound stock was added to 20 ul assay mixture to yield 10uM final compound concentration.
We first characterized the binding of the full-length HuR with 11-mer polyribonucleotide derived from the 3’ UTR of the mRNA of the C-fos oncogene (Fig 1A). The binding curves were obtained by keeping the 5’FAM-RNA at 10 nM and adding increasing amounts of HuR. The apparent dissociation constant for the HuR/RNA binding was estimated to be approximately 20 nM (Fig 1A) using the simplified equation as described. To evaluate the expected effect of the inhibitors on the FP readout of the essay, we measured displacement of the fluorescently labeled RNA by the unlabeled RNA (Fig 1B). In displacement assay, the 10nM of 5’FAM-RNA concentration was mixed with 50nM at which fluorescence polarization value was approximately 80% of the maximal value. Fluorescence polarization was measured as a function of the unlabeled RNA concentration. IC50 was obtained (~40nM) by fitting to the equation specified in the figure legend (Fig 1B)
Supplementary file pone.0138780.s002.tif: S2 Fig Dose responses of hits on confirmed hits from primary screening. Compounds at 250uM in final concentration in the assay volume of 25uL were added to the mixture of 10nM RNA and 50nM HuR in the first well in 384 format plate followed by a serial dilution into next well where the concentration of RNA and HuR was kept constant. (TIF) Click here for additional data file.
Supplementary file pone.0138780.s010.doc: S1 Table IC50 for confirmed hits from primary HTS screening. IC50s were obtained by fitting to the equation of ΔP = ΔPmax/(1+10^((Logx0-X)*p)). (DOC) Click here for additional data file.

T1 sequence (Q15717 whole entry): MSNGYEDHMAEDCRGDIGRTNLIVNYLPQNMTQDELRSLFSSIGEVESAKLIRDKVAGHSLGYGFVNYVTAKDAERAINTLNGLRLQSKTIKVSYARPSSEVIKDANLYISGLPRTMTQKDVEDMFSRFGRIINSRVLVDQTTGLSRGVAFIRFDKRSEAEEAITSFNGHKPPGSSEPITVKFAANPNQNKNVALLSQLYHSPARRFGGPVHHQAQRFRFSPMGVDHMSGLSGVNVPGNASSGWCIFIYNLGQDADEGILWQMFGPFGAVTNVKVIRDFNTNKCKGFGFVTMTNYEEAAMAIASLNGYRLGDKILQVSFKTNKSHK

Molecule | IC50 [µM]
CC#CC#Cc1cccc(=O)o1 [C8] | 44.4
COCC(=O)OC1CCn2c1nc1c2C(=O)C(C)=C(NC(C)=O)C1=O (stereo not drawn) [C12] | 17.4
COc1cccc2c1C(=O)c1c(O)c3c(c(O)c1C2=O)CC(O)(/C(C)=N/O)CC3OC1CC(N)C(O)C(C)O1 (stereo not drawn) [C10] | 21.7
CSc1nc(N)c(N=Nc2ccc([As](=O)(O)O)cc2)c(=O)[nH]1 [C6] | 2.7
Cc1ccc(Nc2ccc(N)cc2S(=O)(=O)O)cc1 [C2] | 41
O=C(O)c1cc(N2C(=O)C=CC2=O)cc(N2C(=O)C=CC2=O)c1 [C3] | 26.9
O=C(Nc1cccc([N+](=O)[O-])c1)c1ccc2ccccc2c1O [C4] | 97.4
COC(=O)CC1OCC=C2CN3CCC45C6=CC(=O)C(=O)C([N+](=O)[O-])=C6NC4C1C2CC35 (stereo not drawn) [C9] | 69.6
CCOC(=O)C(=O)Cc1cccnn1 [C7] | 4.6
CO[C@@H]1[C@@H](OC(=O)c2ccc(C)[nH]2)[C@@H](O)[C@H](Oc2ccc3c(O)c(NC(=O)c4ccc(O)c(CC=C(C)C)c4)c(=O)oc3c2Cl)OC1(C)C [C11] | 41.9
O=C(O)C1=NN(c2cc(Cl)c(S(=O)(=O)O)cc2Cl)C(=O)C1 [C5] | 16.7

biological target: T2, Full length HuR (Homo sapiens, UniProt Q15717); test: Sedimentation velocity analytical ultracentrifugation (AUC) of HuR dimer/oligomer; assay type: biochemical; conditions: 10uM HuR and 20uM compounds
T2 construct: Full length (residue 1–326), RRM1-2 (residue 1–190); inferred from pET14b vector and metal chelation chromatography) (N); made in house; host or cells: E. coli BL21 Rosetta
Procedure: Sedimentation velocity analytical ultracentrifugation was performed on a Beckman XLA analytical ultracentrifuge using an AN50 Ti rotor with standard Epon 2-channel centerpieces. The samples were spun at 25000rpm for~12hrs at 20 C. 25 scans measuring absorbance at 280nm were collected. The data were analyzed using Ultrascan III software.
Supplementary file pone.0138780.s005.tif: S5 Fig Post-hit validation using analytical ultracentrifugation (AUC). Sedimentation velocity studies are informative of the overall shape of molecule. […] We tested 4 compounds from secondary screening. 30% and 50% fraction of boundary were in orange. […] (TIF) Click here for additional data file.

T2 sequence (Q15717 whole entry): as above

Molecule | effect on formation of HuR dimer/oligomer (shift of boundary toward monomer)
CC#CC#Cc1cccc(=O)o1 [C8] | did not
Cc1ccc(Nc2ccc(N)cc2S(=O)(=O)O)cc1 [C2] | did not

biological target: T3, HuR full length (UniProt Q15717 1-326); test: fluorescence polarization; 10 nM RNA; apparent Kd; FP: 50 mM Na phosphate, 100 mM NaCl, 5 mM TCEP, pH 7.0, 384-well plate; temperature not stated; NMR conditions not in material; conditions: protein: recombinant; (pET14b, metal chelation); label: 5'-FAM; single strand
T3 sequence (Q15717 whole entry): as above

Molecule | Kd [nM]
AUUUUUAUUUU (ssRNA) [5'-FAM c-Fos 11-mer ARE RNA] | ~20

biological target: T3, HuR full length; test: competition (fluorescence polarization); displacement of 10 nM 5'-FAM RNA (N1) from 50 nM HuR; FP: 50 mM Na phosphate, 100 mM NaCl, 5 mM TCEP, pH 7.0, 384-well plate; temperature not stated; NMR conditions not in material; conditions: protein: recombinant; (pET14b, metal chelation); single strand

Molecule | IC50 [nM]
AUUUUUAUUUU (ssRNA) [unlabeled c-Fos 11-mer ARE RNA] | ~40
